Tests used:
[1] = solubility in parenteral diluents; conditions: parenteral diluents suitable for injection
[2] = rate of absorption after parenteral versus oral administration; assay type: in vivo; conditions: such as IM, versus oral administration of the same dose
Description: Intramuscular injection is the preferred mode of delivery to the mammal being treated particularly in emergency situations. […] Preferably the lyophilized pharmaceutical formulation of this invention is diluted with aqueous solvent suitable for injection and a liquid unit dosage form prepared for administration to a mammal.

Compound | solubility in parenteral diluents [1] | rate of absorption [2]
Cc1cc2c(s1)Nc1ccccc1N=C2N1CCN(C)CC1 [Form II] | does not readily dissolve | 
Cc1cc2c(s1)Nc1ccccc1N=C2N1CCN(C)CC1 [olanzapine, 2-methyl-4-(4-methyl-1-piperazinyl)-10H-thieno[2,3-b][1,5]benzodiazepine] | relatively insoluble | more rapid

Reference: patent US20040176357A1, “2 Methyl-thieno-benzodiazepine lyophilized formulation” (priority 2001, published 2004)
